Laboratory results taken from ChEMBL document CHEMBL6109066, “Synthesis, cytotoxic evaluation, and molecular docking of novel zerumbone oxime esters and azazerumbone derivatives” (Bioorg Med Chem Lett, 2025).
≈ marks a conversion by molar mass, not a printed value.

What was measured:
Format in all cases: functional, cell-based
[1] = tested on: AGS; experiment: Cytotoxicity against human AGS cells
[2] = tested on: A549; experiment: Cytotoxicity against human A549 cells
[3] = tested on: HL-60; experiment: Cytotoxicity against human HL-60 cells
[4] = tested on: HepG2; experiment: Cytotoxicity against human HepG2 cells

| Structure (SMILES) | IC50 [1] | IC50 [2] | IC50 [3] | IC50 [4] |
| --- | --- | --- | --- | --- |
| C/C1=C\CC(C)(C)/C=C/C(=O)N/C(C)=C/CC1 | 39.6 µg/mL (≈ 170 µM) | 56.9 µg/mL (≈ 244 µM) | 9.84 µg/mL (≈ 42.2 µM) | 27.4 µg/mL (≈ 117 µM) |
| C\C1=C/CC/C(C=O)=C/CC(C)(C)/C=C/C1=N/O | 53.9 µg/mL (≈ 218 µM) | 91.8 µg/mL (≈ 371 µM) | 37.7 µg/mL (≈ 152 µM) | 64.1 µg/mL (≈ 259 µM) |
| C#CCN[C@@H]1CC/C(C)=C/CC(C)(C)/C=C/C(=O)[C@@H]1C | 11.5 µg/mL (≈ 42 µM) | 32.2 µg/mL (≈ 118 µM) | 9.59 µg/mL (≈ 35.1 µM) | 6.52 µg/mL (≈ 23.8 µM) |
| COc1ccc(C(=O)O/N=C2/C=C/C(C)(C)C/C=C(\C)CC/C=C/2C)cc1 | 1.93 µg/mL (≈ 5.25 µM) | 1.52 µg/mL (≈ 4.14 µM) | 1.43 µg/mL (≈ 3.89 µM) | 1.42 µg/mL (≈ 3.86 µM) |
| CC(=O)O/N=C1/C=C/C(C)(C)C/C=C(\C)CC/C=C/1C | 23.8 µg/mL (≈ 86.3 µM) | 30.8 µg/mL (≈ 112 µM) | 11 µg/mL (≈ 39.9 µM) | 18.5 µg/mL (≈ 67.3 µM) |
| C/C1=C\CC(C)(C)/C=C/C(=N/OC(=O)c2ccc(Br)cc2)C(/C)=C/CC1 | 27.3 µg/mL (≈ 65.6 µM) | 40.8 µg/mL (≈ 97.9 µM) | 15.4 µg/mL (≈ 36.9 µM) | 12.2 µg/mL (≈ 29.4 µM) |
| C/C1=C\CC(C)(C)/C=C/C(=N/OC(=O)[C@H](NC(=O)OC(C)(C)C)C(C)C)C(/C)=C/CC1 | 3.21 µg/mL (≈ 7.42 µM) | 2.01 µg/mL (≈ 4.65 µM) | 3.88 µg/mL (≈ 8.97 µM) | 1.59 µg/mL (≈ 3.68 µM) |
| C/C1=C\CC(C)(C)/C=C/C(=N/OC(=O)c2ccccc2)C(/C)=C/CC1 | 10.5 µg/mL (≈ 31.3 µM) | 14.3 µg/mL (≈ 42.3 µM) | 6.63 µg/mL (≈ 19.6 µM) | 3.64 µg/mL (≈ 10.8 µM) |
| COc1cc(C(=O)O/N=C2/C=C/C(C)(C)C/C=C(\C)CC/C=C/2C)ccc1OC(C)=O | 10 µg/mL (≈ 23.5 µM) | 15.6 µg/mL (≈ 36.8 µM) | 10.7 µg/mL (≈ 25.2 µM) | 7.41 µg/mL (≈ 17.4 µM) |
| C/C1=C\CC(C)(C)/C=C/C(=N/OC(=O)c2cccc([N+](=O)[O-])c2)C(/C)=C/CC1 | 41.8 µg/mL (≈ 109 µM) | 58.9 µg/mL (≈ 154 µM) | 29.8 µg/mL (≈ 77.8 µM) | 30.4 µg/mL (≈ 79.5 µM) |
| C/C1=C\CC(C)(C)/C=C/C(=N/OC(=O)c2cccc(Cl)c2)C(/C)=C/CC1 | 38.3 µg/mL (≈ 103 µM) | 52.9 µg/mL (≈ 142 µM) | 10.6 µg/mL (≈ 28.5 µM) | 14.3 µg/mL (≈ 38.4 µM) |
| CC(=O)Oc1ccc(C(=O)O/N=C2/C=C/C(C)(C)C/C=C(\C)CC/C=C/2C)cc1 | 9.37 µg/mL (≈ 23.7 µM) | 10.9 µg/mL (≈ 27.5 µM) | 3.55 µg/mL (≈ 8.98 µM) | 5.87 µg/mL (≈ 14.8 µM) |
| CC(=O)N1C(=O)/C=C/C(C)(C)C/C=C(\C)CC/C=C/1C | 9.02 µg/mL (≈ 32.8 µM) | 44.1 µg/mL (≈ 160 µM) | 4.5 µg/mL (≈ 16.3 µM) | 32.9 µg/mL (≈ 120 µM) |
| C/C1=C\CC(C)(C)/C=C/C(=N/OC(=O)c2ccc([N+](=O)[O-])cc2)C(/C)=C/CC1 | 6.66 µg/mL (≈ 17.4 µM) | 9.28 µg/mL (≈ 24.3 µM) | 9.88 µg/mL (≈ 25.8 µM) | 4.61 µg/mL (≈ 12.1 µM) |
| C/C1=C\CC(C)(C)/C=C/C(=N/O)C(/C)=C/CC1 | > 100 µg/mL | > 100 µg/mL | 45.5 µg/mL (≈ 195 µM) | > 100 µg/mL |
| C/C1=C\CC(C)(C)/C=C/C(=N/OC(=O)[C@H](NC(=O)OC(C)(C)C)C(C)(C)C)C(/C)=C/CC1 | 1.5 µg/mL (≈ 3.36 µM) | 1.37 µg/mL (≈ 3.07 µM) | 0.41 µg/mL (≈ 0.918 µM) | 1.15 µg/mL (≈ 2.57 µM) |
| C/C1=C\CC(C)(C)/C=C/C(=N/OC(=O)CCl)C(/C)=C/CC1 | 44.6 µg/mL (≈ 144 µM) | 46.1 µg/mL (≈ 149 µM) | 9.03 µg/mL (≈ 29.1 µM) | 37.5 µg/mL (≈ 121 µM) |
| C/C1=C\CC(C)(C)/C=C/C(=O)[C@H](C)[C@H](Nc2ccc(Cl)cc2)CC1 | > 100 µg/mL | > 100 µg/mL | 53.7 µg/mL (≈ 155 µM) | 56.2 µg/mL (≈ 163 µM) |
| C/C1=C\CC(C)(C)/C=C/C(=N/OC(=O)c2ccccc2O)C(/C)=C/CC1 | 9.04 µg/mL (≈ 25.6 µM) | 12 µg/mL (≈ 34 µM) | 3.99 µg/mL (≈ 11.3 µM) | 4.2 µg/mL (≈ 11.9 µM) |
| Cc1c2ccncc2c(C)c2c1[nH]c1ccccc12 [ELLIPTECINE] | 0.4 µg/mL (≈ 1.62 µM) | 0.39 µg/mL (≈ 1.58 µM) | 0.35 µg/mL (≈ 1.42 µM) | 0.33 µg/mL (≈ 1.34 µM) |
| C/C1=C\CC(C)(C)/C=C/C(=O)/C(C)=C/CC1 [ZERUMBONE] | 1.11 µg/mL (≈ 5.08 µM) | 1.03 µg/mL (≈ 4.72 µM) | 0.86 µg/mL (≈ 3.94 µM) | 0.93 µg/mL (≈ 4.26 µM) |
